{
  "source": "ChEMBL document CHEMBL1909046",
  "about": "“DrugMatrix in vitro pharmacology data”",
  "data": [
    {"test_system": "not listed separately", "assay": "DRUGMATRIX: Glutamate, NMDA, Agonism radioligand binding (ligand: [3H] CGP-39653)", "type": "cell membranes, Rattus norvegicus, Wistar, Cerebral cortex, Membrane", "conditions": "Not Active = under 50% inhibition at 10 µM", "values": [
      {"compound": "CCCNC(=O)NS(=O)(=O)c1ccc(Cl)cc1", "note": "[CHLORPROPAMIDE]", "IC50": "Not Active", "Ki": "Not Active"},
      {"compound": "NS(=O)(=O)c1cc(C2(O)NC(=O)c3ccccc32)ccc1Cl", "note": "(stereo not given) [CHLORTHALIDONE]", "IC50": "Not Active", "Ki": "Not Active"},
      {"compound": "O=C(O)CC(O)(CC(=O)O)C(=O)O", "note": "[CITRIC ACID]", "IC50": "Not Active", "Ki": "Not Active"},
      {"compound": "CC(C)NCC(O)c1ccccc1Cl", "note": "(stereo not given) [CLORPRENALINE]", "IC50": "Not Active", "Ki": "Not Active"},
      {"compound": "CN1CCN(C(c2ccccc2)c2ccccc2)CC1", "note": "[CYCLIZINE]", "IC50": "Not Active", "Ki": "Not Active"},
      {"compound": "CN1C[C@@H]2C[C@H]1CN2c1cc2c(cc1F)c(=O)c(C(=O)O)cn2C1CC1", "note": "[DANOFLOXACIN]", "IC50": "Not Active", "Ki": "Not Active"}
    ]},
    {"target": "Beta-2 adrenergic receptor (Homo sapiens, UniProt P07550)", "sequence (P07550 whole entry)": "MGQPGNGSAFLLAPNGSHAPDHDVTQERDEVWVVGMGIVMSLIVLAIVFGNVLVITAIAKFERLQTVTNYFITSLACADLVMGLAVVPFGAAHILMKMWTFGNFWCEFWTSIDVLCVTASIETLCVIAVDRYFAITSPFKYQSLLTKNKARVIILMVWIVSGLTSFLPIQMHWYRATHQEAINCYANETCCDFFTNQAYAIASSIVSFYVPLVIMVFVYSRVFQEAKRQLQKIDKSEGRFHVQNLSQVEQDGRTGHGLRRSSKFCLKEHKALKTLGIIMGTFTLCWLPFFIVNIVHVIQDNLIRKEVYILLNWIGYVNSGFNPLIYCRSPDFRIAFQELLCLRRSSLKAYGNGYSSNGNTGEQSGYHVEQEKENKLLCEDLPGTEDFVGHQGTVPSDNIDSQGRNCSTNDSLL", "assay": "(§1) DRUGMATRIX: Adrenergic beta2 radioligand binding (ligand: [3H] CGP-12177)", "type": "cell membranes, CHO, Membrane", "conditions": "Not Active = under 50% inhibition at 10 µM; read-out: IC50", "units": {"IC50": "nM"}, "values": [
      {"compound": "CC(C)NCC(O)c1ccccc1Cl", "note": "(stereo not given) [CLORPRENALINE]", "IC50": 1990}
    ]},
    {"target": "Beta-2 adrenergic receptor (Homo sapiens, UniProt P07550)", "assay": "as §1", "type": "cell membranes, CHO, Membrane", "conditions": "Not Active = under 50% inhibition at 10 µM; read-out: Ki", "units": {"Ki": "nM"}, "values": [
      {"compound": "CC(C)NCC(O)c1ccccc1Cl", "note": "(stereo not given) [CLORPRENALINE]", "Ki": 1370}
    ]},
    {"target": "Beta-2 adrenergic receptor (Homo sapiens, UniProt P07550)", "assay": "as §1", "type": "cell membranes, CHO, Membrane", "conditions": "cho; Not Active = under 50% inhibition at 10 µM", "values": [
      {"compound": "CCCNC(=O)NS(=O)(=O)c1ccc(Cl)cc1", "note": "[CHLORPROPAMIDE]", "IC50": "Not Active"},
      {"compound": "NS(=O)(=O)c1cc(C2(O)NC(=O)c3ccccc32)ccc1Cl", "note": "(stereo not given) [CHLORTHALIDONE]", "IC50": "Not Active"},
      {"compound": "O=C(O)CC(O)(CC(=O)O)C(=O)O", "note": "[CITRIC ACID]", "IC50": "Not Active"},
      {"compound": "CN1CCN(C(c2ccccc2)c2ccccc2)CC1", "note": "[CYCLIZINE]", "IC50": "Not Active"},
      {"compound": "CN1C[C@@H]2C[C@H]1CN2c1cc2c(cc1F)c(=O)c(C(=O)O)cn2C1CC1", "note": "[DANOFLOXACIN]", "IC50": "Not Active"}
    ]},
    {"target": "Mitogen-activated protein kinase 14 (Homo sapiens, UniProt Q16539)", "sequence (Q16539 whole entry)": "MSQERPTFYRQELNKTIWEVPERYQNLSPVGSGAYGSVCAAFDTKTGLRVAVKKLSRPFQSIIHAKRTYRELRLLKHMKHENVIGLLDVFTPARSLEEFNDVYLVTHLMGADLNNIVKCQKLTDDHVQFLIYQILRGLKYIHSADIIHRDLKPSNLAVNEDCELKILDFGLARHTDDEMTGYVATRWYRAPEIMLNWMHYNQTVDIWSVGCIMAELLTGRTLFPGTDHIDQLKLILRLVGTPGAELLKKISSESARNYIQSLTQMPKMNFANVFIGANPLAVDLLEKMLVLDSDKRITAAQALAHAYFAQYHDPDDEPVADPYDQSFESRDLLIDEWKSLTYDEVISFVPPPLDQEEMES", "set-up": "species or system Escherichia coli", "conditions": "not given", "values": [
      {"compound": "CCCNC(=O)NS(=O)(=O)c1ccc(Cl)cc1", "note": "[CHLORPROPAMIDE]", "IC50": "Not Active"},
      {"compound": "NS(=O)(=O)c1cc(C2(O)NC(=O)c3ccccc32)ccc1Cl", "note": "(stereo not given) [CHLORTHALIDONE]", "IC50": "Not Active"},
      {"compound": "O=C(O)CC(O)(CC(=O)O)C(=O)O", "note": "[CITRIC ACID]", "IC50": "Not Active"},
      {"compound": "CC(C)NCC(O)c1ccccc1Cl", "note": "(stereo not given) [CLORPRENALINE]", "IC50": "Not Active"},
      {"compound": "CN1CCN(C(c2ccccc2)c2ccccc2)CC1", "note": "[CYCLIZINE]", "IC50": "Not Active"},
      {"compound": "CN1C[C@@H]2C[C@H]1CN2c1cc2c(cc1F)c(=O)c(C(=O)O)cn2C1CC1", "note": "[DANOFLOXACIN]", "IC50": "Not Active"}
    ]},
    {"target": "Protein phosphatase 3 catalytic subunit alpha (Homo sapiens, UniProt Q08209)", "set-up": "species or system Escherichia coli", "conditions": "not given", "values": [
      {"compound": "CCCNC(=O)NS(=O)(=O)c1ccc(Cl)cc1", "note": "[CHLORPROPAMIDE]", "IC50": "Not Active"},
      {"compound": "NS(=O)(=O)c1cc(C2(O)NC(=O)c3ccccc32)ccc1Cl", "note": "(stereo not given) [CHLORTHALIDONE]", "IC50": "Not Active"},
      {"compound": "O=C(O)CC(O)(CC(=O)O)C(=O)O", "note": "[CITRIC ACID]", "IC50": "Not Active"},
      {"compound": "CC(C)NCC(O)c1ccccc1Cl", "note": "(stereo not given) [CLORPRENALINE]", "IC50": "Not Active"},
      {"compound": "CN1CCN(C(c2ccccc2)c2ccccc2)CC1", "note": "[CYCLIZINE]", "IC50": "Not Active"},
      {"compound": "CN1C[C@@H]2C[C@H]1CN2c1cc2c(cc1F)c(=O)c(C(=O)O)cn2C1CC1", "note": "[DANOFLOXACIN]", "IC50": "Not Active"}
    ]},
    {"target": "T1, C-X-C chemokine receptor type 1 (Homo sapiens, UniProt P25024)", "T1 sequence (P25024 whole entry)": "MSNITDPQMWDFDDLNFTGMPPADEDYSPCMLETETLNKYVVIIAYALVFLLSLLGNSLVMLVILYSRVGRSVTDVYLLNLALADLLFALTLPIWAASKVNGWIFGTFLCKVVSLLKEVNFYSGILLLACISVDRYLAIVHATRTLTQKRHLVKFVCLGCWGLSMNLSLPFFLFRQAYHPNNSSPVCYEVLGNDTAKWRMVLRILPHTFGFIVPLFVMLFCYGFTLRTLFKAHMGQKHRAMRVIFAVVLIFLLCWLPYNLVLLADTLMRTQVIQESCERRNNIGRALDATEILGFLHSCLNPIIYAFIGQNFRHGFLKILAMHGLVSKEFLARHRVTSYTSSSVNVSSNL", "conditions": "not given", "values": [
      {"compound": "CCCNC(=O)NS(=O)(=O)c1ccc(Cl)cc1", "note": "[CHLORPROPAMIDE]", "IC50": "Not Active"},
      {"compound": "NS(=O)(=O)c1cc(C2(O)NC(=O)c3ccccc32)ccc1Cl", "note": "(stereo not given) [CHLORTHALIDONE]", "IC50": "Not Active"},
      {"compound": "O=C(O)CC(O)(CC(=O)O)C(=O)O", "note": "[CITRIC ACID]", "IC50": "Not Active"},
      {"compound": "CC(C)NCC(O)c1ccccc1Cl", "note": "(stereo not given) [CLORPRENALINE]", "IC50": "Not Active"},
      {"compound": "CN1CCN(C(c2ccccc2)c2ccccc2)CC1", "note": "[CYCLIZINE]", "IC50": "Not Active"},
      {"compound": "CN1C[C@@H]2C[C@H]1CN2c1cc2c(cc1F)c(=O)c(C(=O)O)cn2C1CC1", "note": "[DANOFLOXACIN]", "IC50": "Not Active"}
    ]},
    {"target": "Carbonic anhydrase 2 (Homo sapiens, UniProt P00918)", "assay": "(§2) DRUGMATRIX: Carbonic Anhydrase II enzyme inhibition (substrate: 4-Nitrophenyl acetate (4-NPA))", "type": "tissue-based, Erythrocyte", "conditions": "Not Active = under 50% inhibition at 10 µM; read-out: IC50", "units": {"IC50": "nM"}, "values": [
      {"compound": "NS(=O)(=O)c1cc(C2(O)NC(=O)c3ccccc32)ccc1Cl", "note": "(stereo not given) [CHLORTHALIDONE]", "IC50": 677}
    ]},
    {"target": "Carbonic anhydrase 2 (Homo sapiens, UniProt P00918)", "assay": "as §2", "type": "tissue-based, Erythrocyte", "conditions": "erythrocyte; Not Active = under 50% inhibition at 10 µM", "values": [
      {"compound": "CCCNC(=O)NS(=O)(=O)c1ccc(Cl)cc1", "note": "[CHLORPROPAMIDE]", "IC50": "Not Active"},
      {"compound": "O=C(O)CC(O)(CC(=O)O)C(=O)O", "note": "[CITRIC ACID]", "IC50": "Not Active"},
      {"compound": "CC(C)NCC(O)c1ccccc1Cl", "note": "(stereo not given) [CLORPRENALINE]", "IC50": "Not Active"},
      {"compound": "CN1CCN(C(c2ccccc2)c2ccccc2)CC1", "note": "[CYCLIZINE]", "IC50": "Not Active"},
      {"compound": "CN1C[C@@H]2C[C@H]1CN2c1cc2c(cc1F)c(=O)c(C(=O)O)cn2C1CC1", "note": "[DANOFLOXACIN]", "IC50": "Not Active"}
    ]},
    {"target": "Voltage-gated inwardly rectifying potassium channel KCNH2 (Homo sapiens, UniProt Q12809)", "sequence (Q12809 whole entry)": "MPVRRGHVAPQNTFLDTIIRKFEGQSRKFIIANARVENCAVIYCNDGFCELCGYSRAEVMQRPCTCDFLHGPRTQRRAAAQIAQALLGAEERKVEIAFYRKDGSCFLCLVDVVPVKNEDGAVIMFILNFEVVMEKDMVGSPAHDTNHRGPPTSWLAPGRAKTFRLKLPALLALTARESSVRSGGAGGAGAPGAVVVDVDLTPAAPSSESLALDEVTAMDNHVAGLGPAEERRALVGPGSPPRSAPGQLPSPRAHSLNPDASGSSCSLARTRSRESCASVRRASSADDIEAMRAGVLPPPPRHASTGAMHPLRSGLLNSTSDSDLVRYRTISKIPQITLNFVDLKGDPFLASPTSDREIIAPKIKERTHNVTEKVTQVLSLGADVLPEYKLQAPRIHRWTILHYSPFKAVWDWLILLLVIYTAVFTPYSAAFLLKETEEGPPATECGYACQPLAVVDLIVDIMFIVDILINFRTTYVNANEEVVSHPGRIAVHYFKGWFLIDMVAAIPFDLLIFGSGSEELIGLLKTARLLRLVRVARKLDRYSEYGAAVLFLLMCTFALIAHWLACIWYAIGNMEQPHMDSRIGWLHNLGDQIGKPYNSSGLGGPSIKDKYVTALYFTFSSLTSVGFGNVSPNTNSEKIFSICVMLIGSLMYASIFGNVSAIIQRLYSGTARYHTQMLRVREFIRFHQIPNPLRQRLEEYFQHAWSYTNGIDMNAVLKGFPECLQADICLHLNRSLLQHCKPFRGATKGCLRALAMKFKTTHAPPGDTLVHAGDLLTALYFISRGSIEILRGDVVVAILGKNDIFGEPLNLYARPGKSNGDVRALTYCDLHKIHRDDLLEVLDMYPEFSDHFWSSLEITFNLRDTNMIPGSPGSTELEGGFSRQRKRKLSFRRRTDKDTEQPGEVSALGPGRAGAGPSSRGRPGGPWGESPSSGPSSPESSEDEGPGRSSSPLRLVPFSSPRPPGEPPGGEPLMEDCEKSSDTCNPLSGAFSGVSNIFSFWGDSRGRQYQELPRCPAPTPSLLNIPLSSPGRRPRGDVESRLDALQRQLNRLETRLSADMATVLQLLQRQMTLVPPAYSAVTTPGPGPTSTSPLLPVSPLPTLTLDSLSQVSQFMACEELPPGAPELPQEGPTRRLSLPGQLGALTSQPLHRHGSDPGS", "conditions": "hek293", "values": [
      {"compound": "CCCNC(=O)NS(=O)(=O)c1ccc(Cl)cc1", "note": "[CHLORPROPAMIDE]", "IC50": "Not Active", "Ki": "Not Active"},
      {"compound": "NS(=O)(=O)c1cc(C2(O)NC(=O)c3ccccc32)ccc1Cl", "note": "(stereo not given) [CHLORTHALIDONE]", "IC50": "Not Active", "Ki": "Not Active"},
      {"compound": "O=C(O)CC(O)(CC(=O)O)C(=O)O", "note": "[CITRIC ACID]", "IC50": "Not Active", "Ki": "Not Active"},
      {"compound": "CC(C)NCC(O)c1ccccc1Cl", "note": "(stereo not given) [CLORPRENALINE]", "IC50": "Not Active", "Ki": "Not Active"},
      {"compound": "CN1CCN(C(c2ccccc2)c2ccccc2)CC1", "note": "[CYCLIZINE]", "IC50": "Not Active", "Ki": "Not Active"},
      {"compound": "CN1C[C@@H]2C[C@H]1CN2c1cc2c(cc1F)c(=O)c(C(=O)O)cn2C1CC1", "note": "[DANOFLOXACIN]", "IC50": "Not Active", "Ki": "Not Active"}
    ]}
  ]
}
